What was measured:
[1] = system: aCD3/aCD28-stimulated human CD4+-T-cells; experiment: IL-2 production and activation markers in aCD3/aCD28 stimulated isolated human CD4+-T-cells; assay type: cell-based; conditions: IL-2 production at 3 μM compound
Outline: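 CD4+ T cells isolated from buffy-coat PBMCs by microbeads were plated in Xvivo medium (1.5*10^5 cells/well) and stimulated with anti-CD3/28 mAbs plus compound. IL-2 measured by ELISA in supernatants at 24 h or 48 h; CD25 and proliferation by flow cytometry, CD69 at 24 h. Activity classes based on IL-2 at 3 μM compound.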

non-stimulated PBMCs = experiment: Non-stimulated PBMCs: cytokine secretion and signs of T-cell activation; assay type: cell-based, human
Text: This is an important finding for compounds that shall selectively act on T cells which have been activated by presence of antigen from pathogens or tumors, but shall not lead to an unwanted general activation of all T cells of a patient.

[2] = system: CD8 T cells & M21 tumor cells; experiment: CD8 T cells from M21-prestimulated PBMCs restimulated with M21 tumor cells, with or without PD-1 blockade; assay type: cell-based, human
Procedure: For experiments investigating effects of PD-1 blockade, PBMCs were preincubated with 1 h UV-irradiated M21 tumor cells (50000 tumor cells per 1 Mill. PBMCs) for 14 days. […] Compounds and anti-PD-1 antibody (Nivolumab) or control antibody without direct effects on CD8 T cells (Ipilimumab) were added where indicated.
[…] Example 107, no antibody (no Ig), anti-PD-1 antibody (Nivolumab) or control antibody without direct effects on CD8 T cells (Ipilimumab) were included where indicated.

[3] = Ex. 107 0.03 μM, with Ipilimumab
[4] = Ex. 107 0.03 μM, with Nivolumab
[5] = Ex. 107 0.1 μM, with Ipilimumab
[6] = Ex. 107 0.3 μM, with Ipilimumab

Cl.N[C@H]1CS(=O)(=O)c2cc(F)c(C(=O)N[C@H]3CC3(F)F)cc2N(Cc2ccc(Cl)cc2)C1=O (single isomer, unassigned) [Example 107]
Activity Class CD4+ [1]: A (IL-2 production at 3 μM compound concentration >10 ng/mL) | cytokine secretion or other signs of T-cell activation (non-stimulated PBMCs): did not enhance cytokine secretion or other signs of T-cell activation | enhancement of cytokine production ([2]; CD8 T cells in the absence of tumor cells): such effect was not detected in the absence of tumor cells | production of IL-2 and IFN-gamma ([2]; CD8 T cells restimulated with M21 tumor cells): enhanced production of both cytokines specifically upon tumor cell contact | Average Granzyme B ([2]; Ex. 107 0.03 μM, no Ig): 1.971 ng/mL | Average IFN-g ([2]; Ex. 107 0.03 μM, no Ig): 0.059 ng/mL | Average IL-2 ([2]; Ex. 107 0.03 μM, no Ig): 0.048 ng/mL | Average Number of living M21 tumor cells ([2]; Ex. 107 0.03 μM, no Ig): 16433 | Average Granzyme B [2, 3]: 1.639 ng/mL | Average IFN-g [2, 3]: 0.057 ng/mL | Average IL-2 [2, 3]: 0.041 ng/mL | Average Number of living M21 tumor cells [2, 3]: 21424 | Average Granzyme B [2, 4]: 5.522 ng/mL | Average IFN-g [2, 4]: 0.772 ng/mL | Average IL-2 [2, 4]: 0.105 ng/mL | Average Number of living M21 tumor cells [2, 4]: 5574 | Average Granzyme B ([2]; Ex. 107 0.1 μM, no Ig): 3.645 ng/mL | Average IFN-g ([2]; Ex. 107 0.1 μM, no Ig): 0.313 ng/mL | Average IL-2 ([2]; Ex. 107 0.1 μM, no Ig): 0.106 ng/mL | Average Number of living M21 tumor cells ([2]; Ex. 107 0.1 μM, no Ig): 9029 | Average Granzyme B [2, 5]: 3.905 ng/mL | Average IFN-g [2, 5]: 0.363 ng/mL | Average IL-2 [2, 5]: 0.100 ng/mL | Average Number of living M21 tumor cells [2, 5]: 10688 | Average Granzyme B ([2]; Ex. 107 0.1 μM, with Nivolumab): 9.246 ng/mL | Average IFN-g ([2]; Ex. 107 0.1 μM, with Nivolumab): 2.282 ng/mL | Average IL-2 ([2]; Ex. 107 0.1 μM, with Nivolumab): 0.258 ng/mL | Average Number of living M21 tumor cells ([2]; Ex. 107 0.1 μM, with Nivolumab): 3361 | Average Granzyme B ([2]; Ex. 107 0.3 μM, no Ig): 5.469 ng/mL | Average IFN-g ([2]; Ex. 107 0.3 μM, no Ig): 1.114 ng/mL | Average IL-2 ([2]; Ex. 107 0.3 μM, no Ig): 0.259 ng/mL | Average Number of living M21 tumor cells ([2]; Ex. 107 0.3 μM, no Ig): 3822 | Average Granzyme B [2, 6]: 6.001 ng/mL | Average IFN-g [2, 6]: 1.098 ng/mL | Average IL-2 [2, 6]: 0.222 ng/mL | Average Number of living M21 tumor cells [2, 6]: 4339 | Average Granzyme B ([2]; Ex. 107 0.3 μM, with Nivolumab): 12.040 ng/mL | Average IFN-g ([2]; Ex. 107 0.3 μM, with Nivolumab): 4.565 ng/mL | Average IL-2 ([2]; Ex. 107 0.3 μM, with Nivolumab): 0.590 ng/mL | Average Number of living M21 tumor cells ([2]; Ex. 107 0.3 μM, with Nivolumab): 1648 | Average Granzyme B ([2]; Ex. 107 1 μM, no Ig): 7.246 ng/mL | Average IFN-g ([2]; Ex. 107 1 μM, no Ig): 1.963 ng/mL | Average IL-2 ([2]; Ex. 107 1 μM, no Ig): 0.389 ng/mL | Average Number of living M21 tumor cells ([2]; Ex. 107 1 μM, no Ig): 2642 | Average Granzyme B ([2]; Ex. 107 1 μM, with Ipilimumab): 7.906 ng/mL | Average IFN-g ([2]; Ex. 107 1 μM, with Ipilimumab): 2.350 ng/mL | Average IL-2 ([2]; Ex. 107 1 μM, with Ipilimumab): 0.478 ng/mL | Average Number of living M21 tumor cells ([2]; Ex. 107 1 μM, with Ipilimumab): 2104 | Average Granzyme B ([2]; Ex. 107 1 μM, with Nivolumab): 12.985 ng/mL | Average IFN-g ([2]; Ex. 107 1 μM, with Nivolumab): 5.846 ng/mL | Average IL-2 ([2]; Ex. 107 1 μM, with Nivolumab): 0.954 ng/mL | Average Number of living M21 tumor cells ([2]; Ex. 107 1 μM, with Nivolumab): 1574 | Average Granzyme B ([2]; Ex. 107 3 μM, no Ig): 8.208 ng/mL | Average IFN-g ([2]; Ex. 107 3 μM, no Ig): 2.469 ng/mL | Average IL-2 ([2]; Ex. 107 3 μM, no Ig): 0.523 ng/mL | Average Number of living M21 tumor cells ([2]; Ex. 107 3 μM, no Ig): 2075 | Average Granzyme B ([2]; Ex. 107 3 μM, with Ipilimumab): 9.283 ng/mL | Average IFN-g ([2]; Ex. 107 3 μM, with Ipilimumab): 2.745 ng/mL | Average IL-2 ([2]; Ex. 107 3 μM, with Ipilimumab): 0.555 ng/mL | Average Number of living M21 tumor cells ([2]; Ex. 107 3 μM, with Ipilimumab): 2083 | Average Granzyme B ([2]; Ex. 107 3 μM, with Nivolumab): 14.403 ng/mL | Average IFN-g ([2]; Ex. 107 3 μM, with Nivolumab): 6.041 ng/mL | Average IL-2 ([2]; Ex. 107 3 μM, with Nivolumab): 1.285 ng/mL | Average Number of living M21 tumor cells ([2]; Ex. 107 3 μM, with Nivolumab): 1429 | Average Granzyme B ([2]; Ex. 107 10 μM, no Ig): 8.378 ng/mL | Average IFN-g ([2]; Ex. 107 10 μM, no Ig): 3.113 ng/mL | Average IL-2 ([2]; Ex. 107 10 μM, no Ig): 0.643 ng/mL | Average Number of living M21 tumor cells ([2]; Ex. 107 10 μM, no Ig): 2000 | Average Granzyme B ([2]; Ex. 107 10 μM, with Ipilimumab): 8.227 ng/mL | Average IFN-g ([2]; Ex. 107 10 μM, with Ipilimumab): 3.171 ng/mL | Average IL-2 ([2]; Ex. 107 10 μM, with Ipilimumab): 0.669 ng/mL | Average Number of living M21 tumor cells ([2]; Ex. 107 10 μM, with Ipilimumab): 2033 | Average Granzyme B ([2]; Ex. 107 10 μM, with Nivolumab): 13.079 ng/mL | Average IFN-g ([2]; Ex. 107 10 μM, with Nivolumab): 6.729 ng/mL | Average IL-2 ([2]; Ex. 107 10 μM, with Nivolumab): 1.596 ng/mL | Average Number of living M21 tumor cells ([2]; Ex. 107 10 μM, with Nivolumab): 1799 | reduction of viable tumor cells ([2]; example 107 in the presence of Nivolumab): even more pronounced and reached with lower compound concentrations in the presence of Nivolumab | enhancement of cytokine production ([2]; example 107 together with anti-PD-1 antibody (Nivolumab), CD8 T cells & M21): the enhancement of cytokine production was synergistic, i.e. more than additive | granzyme release upon tumor-cell contact ([2]; example 107 with PD-1 blockade, CD8 T cells & M21): mediated an synergistic enhancement of the cytotoxic effector granzyme release upon tumor-cell contact | viable tumor cells ([2]; immune cell cocultures with M21 tumor cells): strong reduction of viable tumor cells
